Laboratory results reported in the supplement of paper PMC10883282.
± gives the standard deviation of the averaged measurements.

Key:
Experiment in all cases: relative viability vs DMSO control (72 h) (fraction); higher = more viable cells
SW1353 = tested on: SW1353
Procedure, shortened: (§1)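 Densities for seeding sarcoma cell lines into 384-well plates were set to give 80–90% confluence. After 24 h, 2.5 µl of serially diluted compound from source plates of 10 mM to 0.0002 mM went in, and plates stayed 72 h at 37 °C in 5% CO2 with 0.1% DMSO vehicle and a 5 µM positive control. Percent growth from ATPLite readings, averaged over up to triplicate wells, served as relative viability, rescaled so 1 means full and 0 means none.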

G401 = tested on: G401
Procedure, shortened: as §1

SK-ES-1 = tested on: SK-ES-1
Procedure, shortened: as §1

KHOS-240S = tested on: KHOS-240S
Procedure, shortened: as §1

MES-SA = tested on: MES-SA
Procedure, shortened: as §1

SK-LMS-1 = tested on: SK-LMS-1
Procedure, shortened: as §1

RD-ES = tested on: RD-ES
Procedure, shortened: as §1

VA-ES-BJ = tested on: VA-ES-BJ
Procedure, shortened: as §1

SYO-1 = tested on: SYO-1
Procedure, shortened: as §1

HT1080 = tested on: HT1080
Procedure, shortened: as §1

RD = tested on: RD
Procedure, shortened: as §1

SW982 = tested on: SW982
Procedure, shortened: as §1

COc1cc(Nc2ncc(F)c(Nc3ccc4c(n3)N(COP(=O)(O)O)C(=O)C(C)(C)O4)n2)cc(OC)c1OC [Fostamatinib]
Conditions | relative viability
G401, 0.00017 µM | 0.9887 ± 0.008
G401, 0.00051 µM | 1.01 ± 0.031
G401, 0.00152 µM | 1.03 ± 0.033
G401, 0.00457 µM | 1.07 ± 0.049
G401, 0.01372 µM | 1.004 ± 0.0072
G401, 0.04115 µM | 1.05 ± 0.051
G401, 0.1235 µM | 0.986 ± 0.031
G401, 0.3704 µM | 0.962 ± 0.034
G401, 1.111 µM | 0.75 ± 0.054
G401, 3.333 µM | 0.212 ± 0.014
G401, 10 µM | 0.0346 ± 0.0027
HT1080, 0.00017 µM | 1.06 ± 0.032
HT1080, 0.00051 µM | 1.07 ± 0.045
HT1080, 0.00152 µM | 1.08 ± 0.02
HT1080, 0.00457 µM | 1.07 ± 0.021
HT1080, 0.01372 µM | 1.06 ± 0.03
HT1080, 0.04115 µM | 1.06 ± 0.037
HT1080, 0.1235 µM | 1.09 ± 0.022
HT1080, 0.3704 µM | 1.101 ± 0.0083
HT1080, 1.111 µM | 1.06 ± 0.023
HT1080, 3.333 µM | 0.937 ± 0.025
HT1080, 10 µM | 0.658 ± 0.029
KHOS-240S, 0.00017 µM | 1.08 ± 0.045
KHOS-240S, 0.00051 µM | 1.08 ± 0.047
KHOS-240S, 0.00152 µM | 1.08 ± 0.073
KHOS-240S, 0.00457 µM | 1.08 ± 0.043
KHOS-240S, 0.01372 µM | 1.07 ± 0.053
KHOS-240S, 0.04115 µM | 1.07 ± 0.016
KHOS-240S, 0.1235 µM | 1.01 ± 0.062
KHOS-240S, 0.3704 µM | 0.892 ± 0.046
KHOS-240S, 1.111 µM | 0.559 ± 0.012
KHOS-240S, 3.333 µM | 0.196 ± 0.0087
KHOS-240S, 10 µM | 0.0301 ± 0.0056
MES-SA, 0.00017 µM | 0.904 ± 0.011
MES-SA, 0.00051 µM | 0.94 ± 0.062
MES-SA, 0.00152 µM | 0.932 ± 0.015
MES-SA, 0.00457 µM | 0.921 ± 0.039
MES-SA, 0.01372 µM | 0.943 ± 0.033
MES-SA, 0.04115 µM | 0.931 ± 0.035
MES-SA, 0.1235 µM | 0.853 ± 0.043
MES-SA, 0.3704 µM | 0.768 ± 0.03
MES-SA, 1.111 µM | 0.861 ± 0.03
MES-SA, 3.333 µM | 0.332 ± 0.019
MES-SA, 10 µM | 0.043 ± 0.00086
RD, 0.00017 µM | 1.09 ± 0.017
RD, 0.00051 µM | 1.1 ± 0.03
RD, 0.00152 µM | 1.11 ± 0.069
RD, 0.00457 µM | 1.1 ± 0.014
RD, 0.01372 µM | 1.11 ± 0.048
RD, 0.04115 µM | 1.13 ± 0.066
RD, 0.1235 µM | 1.07 ± 0.054
RD, 0.3704 µM | 0.991 ± 0.04
RD, 1.111 µM | 0.96 ± 0.023
RD, 3.333 µM | 0.535 ± 0.011
RD, 10 µM | 0.457 ± 0.015
RD-ES, 0.00017 µM | 0.9556 ± 0.0089
RD-ES, 0.00051 µM | 0.964 ± 0.026
RD-ES, 0.00152 µM | 0.9726 ± 0.0074
RD-ES, 0.00457 µM | 0.958 ± 0.011
RD-ES, 0.01372 µM | 0.972 ± 0.011
RD-ES, 0.04115 µM | 0.9768 ± 0.0063
RD-ES, 0.1235 µM | 0.943 ± 0.026
RD-ES, 0.3704 µM | 0.792 ± 0.02
RD-ES, 1.111 µM | 0.715 ± 0.022
RD-ES, 3.333 µM | 0.484 ± 0.0056
RD-ES, 10 µM | 0.144 ± 0.0043
SK-ES-1, 0.00017 µM | 1.01 ± 0.042
SK-ES-1, 0.00051 µM | 1.04 ± 0.0074
SK-ES-1, 0.00152 µM | 1.03 ± 0.029
SK-ES-1, 0.00457 µM | 1.049 ± 0.0092
SK-ES-1, 0.01372 µM | 1.01 ± 0.046
SK-ES-1, 0.04115 µM | 0.986 ± 0.035
SK-ES-1, 0.1235 µM | 0.813 ± 0.058
SK-ES-1, 0.3704 µM | 0.602 ± 0.022
SK-ES-1, 1.111 µM | 0.831
SK-ES-1, 3.333 µM | 0.292 ± 0.014
SK-ES-1, 10 µM | 0.0769 ± 0.00062
SK-LMS-1, 0.00017 µM | 1.06 ± 0.037
SK-LMS-1, 0.00051 µM | 1.03 ± 0.015
SK-LMS-1, 0.00152 µM | 1.05 ± 0.019
SK-LMS-1, 0.00457 µM | 1.05 ± 0.02
SK-LMS-1, 0.01372 µM | 1.03 ± 0.046
SK-LMS-1, 0.04115 µM | 1.029 ± 0.008
SK-LMS-1, 0.1235 µM | 0.897 ± 0.042
SK-LMS-1, 0.3704 µM | 0.819 ± 0.016
SK-LMS-1, 1.111 µM | 0.769 ± 0.045
SK-LMS-1, 3.333 µM | 0.618 ± 0.027
SK-LMS-1, 10 µM | 0.403 ± 0.024
SW982, 0.00017 µM | 1.05 ± 0.016
SW982, 0.00051 µM | 1.05 ± 0.022
SW982, 0.00152 µM | 1.04 ± 0.037
SW982, 0.00457 µM | 1.06 ± 0.025
SW982, 0.01372 µM | 1.053 ± 0.0081
SW982, 0.04115 µM | 1.02 ± 0.017
SW982, 0.1235 µM | 0.822 ± 0.017
SW982, 0.3704 µM | 0.66 ± 0.018
SW982, 1.111 µM | 0.507 ± 0.032
SW982, 3.333 µM | 0.216 ± 0.0071
SW982, 10 µM | 0.128 ± 0.0059
SW1353, 0.00017 µM | 0.996 ± 0.017
SW1353, 0.00051 µM | 0.997 ± 0.017
SW1353, 0.00152 µM | 0.997 ± 0.016
SW1353, 0.00457 µM | 1.01 ± 0.007
SW1353, 0.01372 µM | 0.9999 ± 0.0047
SW1353, 0.04115 µM | 0.965 ± 0.025
SW1353, 0.1235 µM | 0.8997 ± 0.007
SW1353, 0.3704 µM | 0.773 ± 0.047
SW1353, 1.111 µM | 0.6 ± 0.059
SW1353, 3.333 µM | 0.296 ± 0.011
SW1353, 10 µM | 0.256 ± 0.026
SYO-1, 0.00017 µM | 0.964 ± 0.042
SYO-1, 0.00051 µM | 0.953 ± 0.042
SYO-1, 0.00152 µM | 0.969 ± 0.043
SYO-1, 0.00457 µM | 0.958 ± 0.023
SYO-1, 0.01372 µM | 0.966 ± 0.025
SYO-1, 0.04115 µM | 0.922 ± 0.034
SYO-1, 0.1235 µM | 0.912 ± 0.071
SYO-1, 0.3704 µM | 0.656 ± 0.026
SYO-1, 1.111 µM | 0.379 ± 0.013
SYO-1, 3.333 µM | 0.22 ± 0.02
SYO-1, 10 µM | 0.167 ± 0.012
VA-ES-BJ, 0.00017 µM | 1.05 ± 0.045
VA-ES-BJ, 0.00051 µM | 1.06 ± 0.037
VA-ES-BJ, 0.00152 µM | 1.06 ± 0.012
VA-ES-BJ, 0.00457 µM | 1.04 ± 0.027
VA-ES-BJ, 0.01372 µM | 1.04 ± 0.021
VA-ES-BJ, 0.04115 µM | 1.06 ± 0.043
VA-ES-BJ, 0.1235 µM | 1.01 ± 0.026
VA-ES-BJ, 0.3704 µM | 0.888 ± 0.04
VA-ES-BJ, 1.111 µM | 0.727 ± 0.18
VA-ES-BJ, 3.333 µM | 0.366 ± 0.0078
VA-ES-BJ, 10 µM | 0.164 ± 0.025
